# Measured values published in patent publication US8658672B2, “HIF-1α activating agent” (University of Seoul Foundation of Industrial and Academic …, priority 2006, dated 2014).
# Legend:
# HIF-1α [1] = assay: Effects of CQ and TPEN on HIF-1α stabilization in HepG2 cells (Western blotting); format: cell-based, human; conditions: 6 hours, TPEN 5 μM
# Method: Human HepG2 hepatoma cells (ATCC HB-8065) were cultured under normoxic condition and under hypoxic condition, respectively. HepG2 cells were cultured in MEM (Invitrogen, USA) containing non-essential amino acids and supplemented with 10% FBS (fetal bovine serum: Biowhittaker, USA). The cells were made hypoxic by incubation in anaerobic incubator (Model 1029, Form a Scientific. Inc) at 37° C. with 5% CO2, 10% H2 and 85% N2. The cells were treated with drugs one hour before incubation under hypoxic condition. To separate RNAs, the cells were incubated for 16 hours under hypoxic condition and to separate proteins the cells were cultured for 6 hours under hypoxic condition. […] HIF-1α expression was investigated by Western blotting. Samples from each group proceeded to 8% SDS-PAGE for electrophoresis and were then transferred onto nitrocellulose membrane (Schleicher & Schuell Bioscience, USA). Anti-human HIF-1α antibody (BD Pharmingen, USA) (1:800) was used as a primary antibody and mouse-Ig conjugated horseradish peroxidase (1:3,000) was used as a secondary antibody. Anti-β tubulin antibody (BD, Pharmingen, USA) was used as a control.
# HIF-1α [2] = assay: Effects of CQ and TPEN on HIF-1α stabilization in SH-SY5Y cells (Western blotting); format: cell-based, human
# Method: Human SH-SY5Y neuroblastoma cells (ATCC CRL-2266) were cultured under normoxic condition and hypoxic condition, respectively. SH-SY5Y cells were cultured in MEM (Invitrogen, USA) containing non-essential amino acids and supplemented with 10% FBS (fetal bovine serum: Biowhittaker, USA). The cells were made hypoxic by incubation in anaerobic incubator (Model 1029, Form a Scientific Inc) at 37° C. with 5% CO2, 10% H2 and 85% N2. The cells were treated with drugs one hour before hypoxic treatment. To separate RNAs, the cells were incubated for 16 hours under hypoxic condition and to separate proteins the cells were cultured for 6 hours under hypoxic condition. […] HIF-1α expression was investigated by Western blotting. Samples from each group proceeded to 8% SDS-PAGE for electrophoresis and were then transferred onto nitrocellulose membrane (Sigma, USA). Anti-human HIF-1α antibody (BD, Pharmingen, USA) (1:800) was used as a primary antibody and mouse-Ig conjugated horseradish:peroxidase (1:3,000) was used as a secondary antibody. Anti-β tubulin antibody (BD, Pharmingen, USA) was used as a control.
# VEGF = assay: Effects of CQ and TPEN on the expression of VEGF, a HIF-1α target gene (RT-PCR); format: cell-based, human; conditions: TPEN 5 μM
# Text: ID. […] ID. NO: 2 (5′-[…]-3′). […] ID. […] ID. NO: 4 (5′-[…]-3′).
# [3] = tested on: HRE (hypoxia-response element); assay: HRE dependent gene expression in HepG2 hepatoma cells (luciferase reporter gene assay); format: cell-based, human; conditions: p(HRE)4-luc, TPEN 5, 10 μM, CQ 10, 50 μM, 16 hours
# Method: Human HepG2 hepatoma cells were grown to the density of 5×10^4 and then transfected with 100 ng of HRE-driven reporter plasmid, p(HRE)4-luc together with plasmid pCHO110 which encodes β-galactosidase. The transfected human HepG2 hepatoma cells were cultured under normoxic condition and hypoxic condition and then treated with TPEN (5, 10 μM) and CQ (10, 50 μM) for 16 hours each. 48 hours after the transfection, luciferase activities were analyzed using the reporter gene assay system (Promega, USA) and normalized by β-galactosidase activities.
# HIF-1α [4] = assay: In vivo HIF-1α ubiquitination in HepG2 cells (Western blotting); format: cell-based, human; conditions: normoxic condition, 6 hours, CQ 100 μM, TPEN 5 μM
# HIF-1α and CBP [5] = assay: Co-immunoprecipitation of HIF-1α with CBP in HepG2 cells; format: cell-based, human; conditions: normoxic, CQ 100 μM, MG132 5 μM 6 hours
# Method: Total cell extract was prepared by the method of Jaakkola, et al (Jaakkola et al., Science 292:468-472, 2001). For immunoprecipitation, 200 μg of samples of whole cell lysates were reacted with 1 μg of anti-mouse IgG (Santa Cruz Biotechnology, USA) and 10 μl of 0.5% ImmunoPure immobilized protein A/G gel (Pierce, USA) for 30 minutes at 4° C. After removing protein A/G gel, the cleared extracts were mixed with 1 μg of anti-CBP antibody (Santa Cruz Biotechnology, USA). After addition of 15 μl of 0.5% ImmunoPure immobilized protein A/G gel, they were left at 4° C. for 16 hours. The immunoprecipitates were pelleted, washed four times with PBS and resuspended in SDS sample buffer. Samples were then boiled for 5 minutes and run on 8% SDS-polyacrylamide gels, and the proteins were transferred to nitrocellulose membranes by semi-dry transfer (Trans-Blot SD, Bio-Red, Hercules, USA). Co-immunoprecipitated proteins were reacted with anti-human HIF-1α antibody (BD, Pharmingen, USA) and/or anti-CBP antibody and visualized by enhanced chemiluminescence, according to the manufacturer's instruction (Amersham, USA), with anti-mouse or anti-rabbit Ig conjugated with horseradish peroxidase (HRP) as a secondary antibody.
# GAL4-HIF-1α = assay: HIF-1α transactivation, Gal4-driven reporter gene assay in HepG2 cells; format: cell-based, human; conditions: TPEN 5 μM, 16 hours
# Method: Human HepG2 hepatoma cells were cultured at the concentration of 5×10^4, which were transfected with 100 ng of Gal-4-driven reporter plasmid encoding the firefly luciferase gene under the control of the Gal4 binding site together with pGal4/HIF-1α plasmid which expresses HIF-1α linked to the DNA binding domain of the yeast Gal4 protein (amino acids 1-147). The transfected human HepG2 hepatoma cells were incubated in both normoxic and hypoxic conditions and then treated with CQ (10, 50 μM) for 16 hours in normoxic condition. 48 hours after the transfection, luciferase activities were analyzed using the reporter gene assay system (Promega, USA) and normalized by β-galactosidase activities.
# HIF-1α and CBP [6] = molecular target: T1, HIF-1α and CBP (UniProt P45481+Q16665); assay: In vitro interaction between HIF-1α and CBP; format: binding, human; conditions: [35S]-labeled HIF-1α, bead-bound GST-CBP N-domain, with or without ZnCl2 20 μM
# T1 construct: GST-CBP N-domain (amino acids 1-450); made in house
# T1 sequence (P45481 1-450 limits assumed, one chain of several): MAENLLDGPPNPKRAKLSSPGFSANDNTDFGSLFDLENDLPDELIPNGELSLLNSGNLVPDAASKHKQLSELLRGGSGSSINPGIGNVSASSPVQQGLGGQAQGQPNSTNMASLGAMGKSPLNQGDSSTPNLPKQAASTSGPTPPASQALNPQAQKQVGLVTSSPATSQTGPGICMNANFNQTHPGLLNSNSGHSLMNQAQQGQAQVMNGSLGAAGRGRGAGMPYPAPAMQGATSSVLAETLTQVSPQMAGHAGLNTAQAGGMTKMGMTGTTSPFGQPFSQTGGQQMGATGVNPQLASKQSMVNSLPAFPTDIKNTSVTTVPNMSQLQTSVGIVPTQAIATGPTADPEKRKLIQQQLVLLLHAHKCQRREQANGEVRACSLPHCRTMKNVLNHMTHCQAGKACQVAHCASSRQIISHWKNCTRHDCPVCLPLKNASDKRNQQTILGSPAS
# Method: Glutathione-uniflow resin bound protein was washed four times with 1 ml of 0.1% Nonidet P-40 containing binding buffer, eluted by heating in SDS sample buffer, and fractionated by SDS-PAGE (Dann et al., Proc Natl Acad Sci USA 99:15351-15356, 2002).
# [7] = cited from earlier work
# FIH-1 = FIH-1 (Homo sapiens, UniProt Q9NWT6); assay: In vitro FIH-1 activity (capture of radio-labeled HIF-1α by GST-CBP); format: biochemical; set-up: histidine tag; made in house; host or cells: E. coli; conditions: CQ 10 μM and 50 μM; interaction between HIF-1α and CBP as readout
# Sequence of FIH-1 (Q9NWT6 whole entry, the tested form may be a part): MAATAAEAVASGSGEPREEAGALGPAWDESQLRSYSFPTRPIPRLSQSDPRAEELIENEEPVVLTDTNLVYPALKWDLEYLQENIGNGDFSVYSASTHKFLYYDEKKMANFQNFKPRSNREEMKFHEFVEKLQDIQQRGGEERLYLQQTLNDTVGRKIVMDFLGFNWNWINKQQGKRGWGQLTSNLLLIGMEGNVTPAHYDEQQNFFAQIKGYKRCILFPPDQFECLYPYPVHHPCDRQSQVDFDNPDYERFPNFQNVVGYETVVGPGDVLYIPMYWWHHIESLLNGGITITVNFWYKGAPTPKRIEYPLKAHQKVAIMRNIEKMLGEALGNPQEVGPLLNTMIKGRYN
# Method: The human FIH-1 gene (AF395830) was cloned into pET28a vector (Novagen, USA) and FIH-1 was overexpressed in E. coli as a histidine-tagged fusion protein and purified by Ni-affinity chromatography. The fusion protein was purified by gel-filtration chromatography (Hi-Load Superdex 200) and concentrated by ultrafiltration (Choi et al., Mol Pharmacol 68:1803-1809, 2005).
# The resin-bound GST-CBP N-domain (amino acids 1-450) (Kamei et al., Cell 85:403-414, 1996) was then added to 1 μg of each mixture in 500 μl of binding buffer (200 mM Tris-HCl (pH 8.0), 150 mM NaCl, 20 μM ZnCl2, 0.5 mM DTT) and incubation continued for one hour at 4° C. Glutathione-uniflow resin bound protein was washed four times with 1 ml of 0.1% Nondiet P-40 containing binding buffer, and visualized by SDS-PAGE by eluting using SDS sample buffer (Dann et al., Proc Natl Acad Sci USA 99:15351-15356, 2002). The present inventors substituted the asparagine-803 residue of HIF-1α with alanine to generate HIF-1α mutant [HIF-1α-C(N803A)], followed by investigation on FIH-1 activity by the same manner as described above.
# Radio-labeled HIF-1α was reacted with the purified recombinant FIH-1, in the presence or absence of CQ or TPEN. FIH-1 was expected to […] the asparagine-803 residue of HIF-1α and thus inhibit the interaction with CBP binding to HIF-1α transactivation domain (Mahon, P. C. et al., Genes Dev. 15, 2675-2686, 2001; Dannm C. E. R., et al., Proc. Natl. Acad. Sci. USA 99, 15351-15356, 2002; Lando, D., et al., Science 295, 858-861, 2002; Freedman, S. J. et al., Proc. Natl. Acad. Sci. USA 99, 5367-5372, 2002).
compound,measurement,setting,value
"c1ccc(CN(CCN(Cc2ccccn2)Cc2ccccn2)Cc2ccccn2)nc1 [TPEN, tetrakis-(2-pyridylmethyl)ethanediamine]",HIF-1α accumulation,"HIF-1α [1]; hypoxic condition, CQ 10, 100 μM, compared with a control",induced HIF-1α accumulation
same,level of HIF-1α protein,"HIF-1α [1]; normoxic condition, CQ 10, 100, 500 μM",increased the level of HIF-1α protein
same,level of HIF-1α protein,"HIF-1α [2]; normoxic, 6 hours, TPEN 5 μM, CQ 10, 100 μM",increased the level of HIF-1α protein
same,HIF-1α accumulation,HIF-1α [2]; oxygen condition not printed in the sentence (control also accumulated),induced HIF-1α accumulation
same,VEGF expression,"VEGF; HepG2 cells, normoxic, CQ 10, 100 μM",differed in their effects on VEGF expression
same,VEGF expression,"VEGF; SH-SY5Y cells, normoxic condition, CQ 10, 100 μM",reduced VEGF expression
same,VEGF expression,"VEGF; hypoxic condition, 16 hours, CQ 100 μM, SH-SY5Y and HepG2 cells","none of the control, TPEN and CQ increased VEGF expression"
same,HIF-1α dependent hypoxia-response element (HRE) activity,[3],but not TPEN induced HIF-1α dependent hypoxia-response element (HRE) activity
same,HIF-1α ubiquitination in cells,HIF-1α [4],inhibited HIF-1α ubiquitination
same,interaction of HIF-1α with CBP in cells,HIF-1α and CBP [5],inhibited the interaction between HIF-1α and CBP
same,transactivation activity of HIF-1α,GAL4-HIF-1α; hypoxic condition,increased HIF-1α activity
same,transactivation activity of HIF-1α,"GAL4-HIF-1α; normoxic condition, CQ 10, 50 μM",not in normoxic condition
same,direct effect on the interaction between CBP and HIF-1α,HIF-1α and CBP [6],neither CQ nor TPEN directly affected the interaction between CBP and HIF-1α
same,"pKa value, Ca2+",[7]; Ca^2+,3
same,"pKa value, Fe3+",[7]; Fe^3+,14.4
same,"pKa value, Zn2+",[7]; Zn^2+,15.4
same,FIH-1 activity,FIH-1,did not reduce FIH-1 activity
